Biological target: T1, CK1α (casein kinase Iα) (Homo sapiens, UniProt P48729)
T1 sequence (P48729 2-337): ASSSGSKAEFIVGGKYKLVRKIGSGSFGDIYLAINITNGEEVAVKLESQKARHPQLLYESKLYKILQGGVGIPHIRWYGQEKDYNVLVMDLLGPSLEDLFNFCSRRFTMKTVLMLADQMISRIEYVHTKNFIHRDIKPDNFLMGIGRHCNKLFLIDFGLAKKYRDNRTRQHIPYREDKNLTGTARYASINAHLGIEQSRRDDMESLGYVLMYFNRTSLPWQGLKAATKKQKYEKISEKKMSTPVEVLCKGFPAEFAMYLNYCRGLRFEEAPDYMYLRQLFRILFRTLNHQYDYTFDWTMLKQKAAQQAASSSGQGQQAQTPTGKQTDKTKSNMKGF
Assay: TR-FRET
Format: biochemical

CCCCCc1cc(/C=C2/N=C(c3ccc[nH]3)C=C2OC)[nH]c1C [NSC 47147] gave an IC50 of 6 µM.
